Experimental data as given in ChEMBL document CHEMBL1938230, “6-Position optimization of tricyclic 4-quinolone-based inhibitors of glycogen synthase kinase-3β: discovery of nitrile derivatives with picomolar potency” (Bioorg Med Chem Lett, 2012).
Converted amounts (≈) assume the structure as drawn. Blank lines part the entries; values can stand above or below the compound they belong to.

What was measured:
[1] = molecular target: Glycogen synthase kinase-3 beta (Homo sapiens, UniProt P49841); assay: Inhibition of GSK3-beta
[2] = tested on: Staphylococcus aureus; assay: Antibacterial activity against Staphylococcus aureus Smith; assay type: ADME, organism-based
[3] = tested on: Escherichia coli; assay: Antibacterial activity against Escherichia coli ATCC 8739; assay type: ADME, organism-based

Chain of Glycogen synthase kinase-3 beta (P49841 whole entry): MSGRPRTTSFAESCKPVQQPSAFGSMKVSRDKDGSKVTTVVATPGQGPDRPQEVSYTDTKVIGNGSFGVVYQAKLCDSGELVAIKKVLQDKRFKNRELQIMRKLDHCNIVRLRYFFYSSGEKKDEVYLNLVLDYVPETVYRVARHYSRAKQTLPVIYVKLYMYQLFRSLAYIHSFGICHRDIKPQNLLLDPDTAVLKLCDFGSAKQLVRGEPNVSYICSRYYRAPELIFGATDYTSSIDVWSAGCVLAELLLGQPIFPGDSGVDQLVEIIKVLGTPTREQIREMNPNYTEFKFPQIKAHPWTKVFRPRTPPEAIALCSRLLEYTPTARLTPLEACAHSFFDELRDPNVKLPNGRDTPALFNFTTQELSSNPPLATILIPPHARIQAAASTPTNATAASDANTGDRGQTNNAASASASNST

Structure (SMILES): C[C@H]1COc2c(NCCCn3ccnc3)c(F)c(N)c3c(=O)c(C(N)=O)cn1c23
- IC50 [1]: 180 nM
- MIC [2]: > 249 µM
- MIC [3]: > 249 µM

Structure (SMILES): C[C@H]1COc2c(NCCCn3ccnc3)c(F)c(N)c3c(=O)c(C(=N)NO)cn1c23
- IC50 [1]: 140 nM

Structure (SMILES): C[C@H]1COc2c(NCCNc3ccccn3)c(F)c(N)c3c(=O)c(C(=O)O)cn1c23
- MIC [2]: 2 µM (≈ 0.827 µg/mL)
- MIC [3]: 4 µM (≈ 1.65 µg/mL)

Structure (SMILES): C[C@H]1COc2c(NCCNc3ccccn3)c(F)c(N)c3c(=O)c(C(N)=O)cn1c23
- IC50 [1]: 33 nM
- MIC [2]: > 285 µM
- MIC [3]: > 285 µM

Structure (SMILES): C[C@H]1COc2c(NCCCc3ccccn3)c(F)c(N)c3c(=O)c(C(=N)NO)cn1c23
- IC50 [1]: 71 nM

Structure (SMILES): C[C@H]1COc2c(NCCCc3ccccc3)c(F)c(N)c3c(=O)c(C(N)=O)cn1c23
- IC50 [1]: 67 nM
- MIC [2]: 78 µM (≈ 32 µg/mL)
- MIC [3]: > 78 µM

Structure (SMILES): C[C@H]1COc2c(NCCCc3ccccc3)c(F)c(N)c3c(=O)c(C(=O)O)cn1c23
- IC50 [1]: 40 nM
- MIC [2]: 2 µM (≈ 0.823 µg/mL)
- MIC [3]: > 39 µM

Structure (SMILES): C[C@H]1COc2c(NCCCn3ccnc3)c(F)c(N)c3c(=O)c(C(=O)O)cn1c23
- IC50 [1]: 150 nM
- MIC [2]: 8 µM (≈ 3.21 µg/mL)
- MIC [3]: 16 µM (≈ 6.42 µg/mL)

More lines, now with the values ahead:

- IC50 [1]: 20 nM
- MIC [2]: > 257 µM
- MIC [3]: > 257 µM
Structure (SMILES): C[C@H]1COc2c(NCCCn3ccnc3)c(F)c(N)c3c(=O)c(-c4nnn[nH]4)cn1c23

- IC50 [1]: 1.4 nM
Structure (SMILES): C[C@H]1COc2c(NCCCc3ccccc3)c(F)c(N)c3c(=O)c(C#N)cn1c23

- IC50 [1]: 2.4 nM
- MIC [2]: 69 µM (≈ 30.1 µg/mL)
- MIC [3]: > 274 µM
Structure (SMILES): C[C@H]1COc2c(NCCCc3ccccn3)c(F)c(N)c3c(=O)c(-c4nnn[nH]4)cn1c23

- IC50 [1]: 0.57 nM
Structure (SMILES): C[C@H]1COc2c(NCCNc3ccccn3)c(F)c(N)c3c(=O)c(C#N)cn1c23

- IC50 [1]: 1 nM
- MIC [2]: > 306 µM
- MIC [3]: > 306 µM
Structure (SMILES): C[C@H]1COc2c(NCCCn3ccnc3)c(F)c(N)c3c(=O)c(C#N)cn1c23
